Source: patent publication US4175125A, “Method for treating methicillin resistant staphylococcus aureus” (Eli Lilly and Company, priority 1978, dated 1979)
Values after ≈ are worked out from the molar mass of the structure shown.

Legend:
Format in all cases: cell-based
[1] = test system: Staphylococcus aureus cultures; assay: Broth dilution MIC in trypticase soy broth, low and high NaCl (Example 10); details: for MIC: Staphylococcus aureus, TSB
Method: This example compares the antibiotic activities of methicillin, cephalothin and cephaloridine with the compounds of Examples 1, 2 and 3, in broth dilution tests. The MIC values, in μg/ml., are against the same Staphylococcus aureus cultures described in Example 9, except that in this example the cultures were grown in trypticase soy broth (TSB). Growing the cultures in two broth cultures, one having a low (0.5 percent) sodium chloride content and one having a high (5.0 percent) sodium chloride content is said to assist in identifying the methicillin-resistant cultures from those which are not methicillin-resistant. […] See Chabbert, Y. A., 1967 Postgrad. Med. J., 43 (suppl); 40-46. One expects that similar changes in MIC values for this type of culture to other β-lactam antibiotics, e.g., various penicillins and cephalosporins, to have similar implications. […] That is, methicillin-resistant S.aureus cultures are susceptible to the cephalosporin antibiotics used in this invention.

[2] = test system: Staphylococcus aureus cultures; assay: Agar dilution MIC, Example 13 compound vs methicillin resistant Staphylococcus aureus
From the text: The table which follows gives the minimum inhibitory concentration (MIC) in micrograms of compound per milliliter of culture (μg/ml), in comparison with similar MIC values for the known antibiotics methicillin, cephalothin and cephaloridine against the same strains of bacteria.

[3] = test system: Staphylococcus aureus cultures; assay: Agar dilution susceptibility test, phenylthioacetyl cephalosporins vs methicillin resistant S. aureus (Example 9); details: Staphylococcus aureus
From the text: This example compares the antibiotic activities of three known compounds, methicillin, cephalothin, and cephaloridine, with three compounds from the above examples, in terms of minimum inhibitory concentration (MIC) values in microgram/milliliter units against various isolates of Staphylococcus aureus cultures. The culture numbers and the procedures used to obtain the reported data are disclosed by W. E. Wick and D. A. Preston in their article "Heterogeneous Methicillin-Resistant Staphylococcus Aureus" which appeared in Progress in Antimicrobial And Anticancer Chemotherapy, Proceedings of the 6th International Congress of Chemotherapy, Volume, 1, U. of Tokyo Press, Tokyo, (1970). In these agardilution susceptibility tests, the inocula were diluted to 10^3 bacteria per spot. Cultures 3055 (benzylpenicillin sensitive) and H232 (benzylpenicillin-resistant) are controls. The remaining cultures are methicillin-resistant, and, except for 3136, are clinical isolates. Culture 3136 is a 4th transfer laboratory selected mutant.

[4] = culture 3130, table part marked b
[5] = culture 3130, table part marked c
[6] = culture 3131, table part marked b
[7] = culture 3131, table part marked c
[8] = culture 3134, table part marked b
[9] = culture 3134, table part marked c
[10] = culture 3135, table part marked b
[11] = culture 3135, table part marked c
[12] = culture 3136, table part marked b
[13] = culture 3136, table part marked c
[14] = culture 3137, table part marked b
[15] = culture 3137, table part marked c
[16] = culture 3138, table part marked b
[17] = culture 3138, table part marked c
[18] = culture 3139, table part marked b
[19] = culture 3139, table part marked c
[20] = culture (Seattle) 966, table part marked b
[21] = culture (Seattle) 966, table part marked c
[22] = culture S61, table part marked b
[23] = culture S61, table part marked c

CC(=O)OCC1=C(C(=O)O)N2C(=O)[C@@H](NC(=O)Cc3cccs3)[C@H]2SC1 [Cephalothin, cephalothin, reference compound]
difference in MIC values in low versus high salt TSB cultures ([1]; 0.5 percent vs 5.0 percent NaCl, methicillin-resistant S. aureus): fairly wide difference (increase in MIC value from 2 to 64)
MIC ([1]; culture 3055 (control), table part marked b): 0.5 µg/mL (≈ 1.26 µM)
MIC ([1]; culture 3055 (control), table part marked c): 0.5 µg/mL (≈ 1.26 µM)
MIC [1, 4]: 8 µg/mL (≈ 20.2 µM)
MIC [1, 5]: 64 µg/mL (≈ 161 µM)
MIC [1, 6]: 2 µg/mL (≈ 5.04 µM)
MIC [1, 7]: 64 µg/mL (≈ 161 µM)
MIC ([1]; culture 3132 (first column so headed), table part marked b): 2 µg/mL (≈ 5.04 µM)
MIC ([1]; culture 3132 (first column so headed), table part marked c): 64 µg/mL (≈ 161 µM)
MIC ([1]; culture 3132 (second column so headed), table part marked b): 2 µg/mL (≈ 5.04 µM)
MIC ([1]; culture 3132 (second column so headed), table part marked c): 64 µg/mL (≈ 161 µM)
MIC [1, 8]: 32 µg/mL (≈ 80.7 µM)
MIC [1, 9]: 64 µg/mL (≈ 161 µM)
MIC [1, 10]: 2 µg/mL (≈ 5.04 µM)
MIC [1, 11]: 64 µg/mL (≈ 161 µM)
MIC [1, 12]: 2 µg/mL (≈ 5.04 µM)
MIC [1, 13]: 64 µg/mL (≈ 161 µM)
MIC [1, 14]: 64 µg/mL (≈ 161 µM)
MIC [1, 15]: 128 µg/mL (≈ 323 µM)
MIC [1, 16]: 32 µg/mL (≈ 80.7 µM)
MIC [1, 17]: 64 µg/mL (≈ 161 µM)
MIC [1, 18]: 4 µg/mL (≈ 10.1 µM)
MIC [1, 19]: 32 µg/mL (≈ 80.7 µM)
MIC [1, 20]: 2 µg/mL (≈ 5.04 µM)
MIC [1, 21]: 32 µg/mL (≈ 80.7 µM)
MIC ([1]; culture H232 (control), table part marked b): 0.5 µg/mL (≈ 1.26 µM)
MIC ([1]; culture H232 (control), table part marked c): 0.5 µg/mL (≈ 1.26 µM)
MIC ([1]; culture Kavarnick 1138501, table part marked b): 4 µg/mL (≈ 10.1 µM)
MIC ([1]; culture Kavarnick 1138501, table part marked c): 64 µg/mL (≈ 161 µM)
MIC [1, 22]: 8 µg/mL (≈ 20.2 µM)
MIC [1, 23]: 64 µg/mL (≈ 161 µM)
MIC ([1]; culture S, table part marked b): 8 µg/mL (≈ 20.2 µM)
MIC ([1]; culture S, table part marked c): 64 µg/mL (≈ 161 µM)
MIC ([2]; culture 3055 (control), Trypticase Soy Agar with 4.5% NaCl added (5% NaCl)): 0.25 µg/mL (≈ 0.631 µM)
MIC ([2]; culture 3055 (control), Trypticase Soy Agar, 0.5% NaCl): 0.13 µg/mL (≈ 0.328 µM)
MIC ([2]; culture 3130, Trypticase Soy Agar with 4.5% NaCl added (5% NaCl)): 1 µg/mL (≈ 2.52 µM)
MIC ([2]; culture 3130, Trypticase Soy Agar, 0.5% NaCl): 0.5 µg/mL (≈ 1.26 µM)
MIC ([2]; culture 3131, Trypticase Soy Agar with 4.5% NaCl added (5% NaCl)): 1 µg/mL (≈ 2.52 µM)
MIC ([2]; culture 3131, Trypticase Soy Agar, 0.5% NaCl): 0.5 µg/mL (≈ 1.26 µM)
MIC ([2]; culture 3132, Trypticase Soy Agar with 4.5% NaCl added (5% NaCl)): 0.5 µg/mL (≈ 1.26 µM)
MIC ([2]; culture 3132, Trypticase Soy Agar, 0.5% NaCl): 0.5 µg/mL (≈ 1.26 µM)
MIC ([2]; culture 3133, Trypticase Soy Agar with 4.5% NaCl added (5% NaCl)): 0.5 µg/mL (≈ 1.26 µM)
MIC ([2]; culture 3133, Trypticase Soy Agar, 0.5% NaCl): 0.5 µg/mL (≈ 1.26 µM)
MIC ([2]; culture 3134, Trypticase Soy Agar with 4.5% NaCl added (5% NaCl)): 1 µg/mL (≈ 2.52 µM)
MIC ([2]; culture 3134, Trypticase Soy Agar, 0.5% NaCl): 2 µg/mL (≈ 5.04 µM)
MIC ([2]; culture 3135, Trypticase Soy Agar with 4.5% NaCl added (5% NaCl)): 1 µg/mL (≈ 2.52 µM)
MIC ([2]; culture 3135, Trypticase Soy Agar, 0.5% NaCl): 1 µg/mL (≈ 2.52 µM)
MIC ([2]; culture 3136, Trypticase Soy Agar with 4.5% NaCl added (5% NaCl)): 1 µg/mL (≈ 2.52 µM)
MIC ([2]; culture 3136, Trypticase Soy Agar, 0.5% NaCl): 0.5 µg/mL (≈ 1.26 µM)
MIC ([2]; culture 3137, Trypticase Soy Agar with 4.5% NaCl added (5% NaCl)): 1 µg/mL (≈ 2.52 µM)
MIC ([2]; culture 3137, Trypticase Soy Agar, 0.5% NaCl): 2 µg/mL (≈ 5.04 µM)
MIC ([2]; culture 3138, Trypticase Soy Agar with 4.5% NaCl added (5% NaCl)): 2 µg/mL (≈ 5.04 µM)
MIC ([2]; culture 3138, Trypticase Soy Agar, 0.5% NaCl): 1 µg/mL (≈ 2.52 µM)
MIC ([2]; culture 3139, Trypticase Soy Agar with 4.5% NaCl added (5% NaCl)): 0.25 µg/mL (≈ 0.631 µM)
MIC ([2]; culture 3139, Trypticase Soy Agar, 0.5% NaCl): 0.5 µg/mL (≈ 1.26 µM)
MIC ([2]; culture H232 (control), Trypticase Soy Agar with 4.5% NaCl added (5% NaCl)): 0.25 µg/mL (≈ 0.631 µM)
MIC ([2]; culture H232 (control), Trypticase Soy Agar, 0.5% NaCl): 2.5 µg/mL (≈ 6.31 µM)
MIC ([2]; culture Havarmak 1136501, Trypticase Soy Agar with 4.5% NaCl added (5% NaCl)): 1 µg/mL (≈ 2.52 µM)
MIC ([2]; culture Havarmak 1136501, Trypticase Soy Agar, 0.5% NaCl): 1 µg/mL (≈ 2.52 µM)
MIC ([2]; culture S 61, Trypticase Soy Agar with 4.5% NaCl added (5% NaCl)): 1 µg/mL (≈ 2.52 µM)
MIC ([2]; culture S 61, Trypticase Soy Agar, 0.5% NaCl): 1 µg/mL (≈ 2.52 µM)
MIC ([2]; culture Seattle 966, Trypticase Soy Agar with 4.5% NaCl added (5% NaCl)): 0.25 µg/mL (≈ 0.631 µM)
MIC ([2]; culture Seattle 966, Trypticase Soy Agar, 0.5% NaCl): 0.5 µg/mL (≈ 1.26 µM)
MIC ([3]; culture 3055 (control, benzylpenicillin sensitive), table part marked b): < 0.25 µg/mL
MIC ([3]; culture 3055 (control, benzylpenicillin sensitive), table part marked c): < 0.25 µg/mL
MIC [3, 4]: 8 µg/mL (≈ 20.2 µM)
MIC [3, 5]: 64 µg/mL (≈ 161 µM)
MIC [3, 6]: 1 µg/mL (≈ 2.52 µM)
MIC [3, 7]: 32 µg/mL (≈ 80.7 µM)
MIC ([3]; culture 3132, table part marked b): 2 µg/mL (≈ 5.04 µM)
MIC ([3]; culture 3132, table part marked c): 16 µg/mL (≈ 40.4 µM)
MIC ([3]; culture 3133, table part marked b): 2 µg/mL (≈ 5.04 µM)
MIC ([3]; culture 3133, table part marked c): 64 µg/mL (≈ 161 µM)
MIC [3, 8]: 8 µg/mL (≈ 20.2 µM)
MIC [3, 9]: 64 µg/mL (≈ 161 µM)
MIC [3, 10]: 2 µg/mL (≈ 5.04 µM)
MIC [3, 11]: 32 µg/mL (≈ 80.7 µM)
MIC [3, 12]: 2 µg/mL (≈ 5.04 µM)
MIC [3, 13]: 32 µg/mL (≈ 80.7 µM)
MIC [3, 14]: 64 µg/mL (≈ 161 µM)
MIC [3, 15]: 128 µg/mL (≈ 323 µM)
MIC [3, 16]: 8 µg/mL (≈ 20.2 µM)
MIC [3, 17]: 64 µg/mL (≈ 161 µM)
MIC [3, 18]: 1 µg/mL (≈ 2.52 µM)
MIC [3, 19]: 32 µg/mL (≈ 80.7 µM)
MIC [3, 20]: 1 µg/mL (≈ 2.52 µM)
MIC [3, 21]: 32 µg/mL (≈ 80.7 µM)
MIC ([3]; culture H232 (control, benzylpenicillin-resistant), table part marked b): < 0.25 µg/mL
MIC ([3]; culture H232 (control, benzylpenicillin-resistant), table part marked c): < 0.25 µg/mL
MIC ([3]; culture Kavarmark 1138501, table part marked b): 2 µg/mL (≈ 5.04 µM)
MIC ([3]; culture Kavarmark 1138501, table part marked c): 32 µg/mL (≈ 80.7 µM)
MIC [3, 22]: 2 µg/mL (≈ 5.04 µM)
MIC [3, 23]: 64 µg/mL (≈ 161 µM)
